Data from patent US11945822B2, “Pyrazolo-triazine and/or pyrazolo-pxrimidine derivatives as selective inhibitor of cyclin dependent kinase” (QURIENT CO., LTD., priority 2018, dated 2024).

Tests used:
[1] = biological target: T1, CDK1/Cyclin B (Homo sapiens, UniProt P06493); experiment: Enzymatic assay for CDK1 (FRET based LANCE Ultra kinase assay); assay type: biochemical; conditions: read-out: CDK1 enzymatic activity (IC50 range)
T1 construct: purchased Invitrogen PR4768C
Method in brief: (§1)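 Each CDK complex ([…]) phosphorylated 68 nM ULight-MBP peptide with ATP at Km for 60 min at 23° C., against 8 compound doses (4-fold dilutions). EDTA/Eu-anti-phospho-MBP detection, 60 min, then TR-FRET emission at 615 and 665 nm.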

[2] = biological target: T2, CDK5/p25 (Homo sapiens, UniProt Q00535); experiment: Enzymatic assay for CDK5 (FRET based LANCE Ultra kinase assay); assay type: biochemical; conditions: read-out: CDK5 enzymatic activity (IC50 range)
T2 construct: purchased Invitrogen PR8543B
Method in brief: as §1

[3] = biological target: T3, CDK2/Cyclin A (Homo sapiens, UniProt P24941); experiment: Enzymatic assay for CDK2 (FRET based LANCE Ultra kinase assay); assay type: biochemical; conditions: read-out: CDK2 enzymatic activity (IC50 range)
T3 construct: purchased Invitrogen PV6290
Method in brief: as §1

[4] = system: HCT116; experiment: Cellular HCT116 viability assay (CellTiter-Glo, 72 hours); assay type: cell-based; conditions: Homo sapiens, HCT-116
Method in brief: (§2)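 Steps: seed cells at per-line density; add compound, DMSO vehicle kept under 0.1% final; incubate 72 h, 37 °C, 5% CO2; lyse with CellTiter-Glo and read luminescence; run in duplicate.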

[5] = system: H460; experiment: Cellular H460 viability assay (CellTiter-Glo, 72 hours); assay type: cell-based; conditions: Homo sapiens, NCI-H460
Method in brief: as §2

[6] = biological target: T4, CDK7/Cyclin H/MNAT1 (Homo sapiens, UniProt P50613); experiment: Enzymatic assay for CDK7 (FRET based LANCE Ultra kinase assay); assay type: biochemical; conditions: for IC50: read-out: CDK7 enzymatic activity (IC50 range)
T4 construct: purchased Invitrogen PR6749B
Method in brief: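 LANCE Ultra TR-FRET kinase assay using a ULight-labeled peptide substrate and a Eu-labeled anti-phospho antibody, with ATP at its Km. Purified CDK/cyclin complex was added to compound after brief centrifugation.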

[7] = system: MV4-11; experiment: Cellular MV4-11 viability assay (CellTiter-Glo, 72 hours); assay type: cell-based; conditions: Homo sapiens
Method in brief: as §2

[8] = system: RPMI-8226; experiment: Cellular RPMI-8226 viability assay (CellTiter-Glo, 72 hours); assay type: cell-based; conditions: Homo sapiens
Procedure: All cell lines were routinely tested for mycoplasma.
The effect of the CDK7 inhibitor to inhibit the growth of target cancer cells was evaluated through the 72 hours time period of viability assay. Briefly, the candidate cell line ware plated in 96 well plate at the following density of cells respectively. […] DMSO solvent without compound served as a control and final DMSO concentration less than 0.1%. After 72 hours of incubation at 37° C., 5% CO2 incubator, cells were analyzed for the viability using the CellTiter-Glo Luminescent Cell Viability Assay (Promega, Cat #G7570). All viability assays were performed in duplicate and Luminescence was read using an Envision (Perkin Elmer, USA). Data was analyzed using XLfit software.

[9] = system: MOLT-4; experiment: Cellular MOLT-4 viability assay (CellTiter-Glo, 72 hours); assay type: cell-based; conditions: Homo sapiens, MOLT4 viability assay
Method in brief: as §2

T4 sequence (P50613 whole entry): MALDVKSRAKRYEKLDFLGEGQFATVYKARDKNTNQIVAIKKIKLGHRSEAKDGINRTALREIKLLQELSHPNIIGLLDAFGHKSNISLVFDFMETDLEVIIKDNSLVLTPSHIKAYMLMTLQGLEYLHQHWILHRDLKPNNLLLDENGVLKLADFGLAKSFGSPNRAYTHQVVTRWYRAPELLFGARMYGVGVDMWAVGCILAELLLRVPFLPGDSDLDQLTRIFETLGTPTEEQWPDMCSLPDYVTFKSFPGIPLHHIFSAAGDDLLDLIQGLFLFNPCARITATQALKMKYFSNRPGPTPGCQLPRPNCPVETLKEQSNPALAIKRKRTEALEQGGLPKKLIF
T4 sequence (P51946 whole entry partner): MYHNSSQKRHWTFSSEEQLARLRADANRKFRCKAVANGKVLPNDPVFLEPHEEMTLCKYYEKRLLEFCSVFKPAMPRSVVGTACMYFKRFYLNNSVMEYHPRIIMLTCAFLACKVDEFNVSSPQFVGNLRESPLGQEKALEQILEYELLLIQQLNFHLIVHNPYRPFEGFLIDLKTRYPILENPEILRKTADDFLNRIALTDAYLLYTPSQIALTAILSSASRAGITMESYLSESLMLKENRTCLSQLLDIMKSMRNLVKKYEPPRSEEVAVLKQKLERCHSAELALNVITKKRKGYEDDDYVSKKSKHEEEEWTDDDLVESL
T4 sequence (P51948 whole entry partner): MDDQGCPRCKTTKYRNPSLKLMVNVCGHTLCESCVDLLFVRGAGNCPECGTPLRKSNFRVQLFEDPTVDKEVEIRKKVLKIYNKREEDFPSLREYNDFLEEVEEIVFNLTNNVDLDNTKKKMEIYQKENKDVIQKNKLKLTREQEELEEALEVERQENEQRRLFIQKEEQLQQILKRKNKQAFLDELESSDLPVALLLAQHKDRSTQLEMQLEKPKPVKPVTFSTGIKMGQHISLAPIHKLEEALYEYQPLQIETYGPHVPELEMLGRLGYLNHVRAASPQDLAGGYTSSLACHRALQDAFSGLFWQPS
T1 sequence (P06493 whole entry): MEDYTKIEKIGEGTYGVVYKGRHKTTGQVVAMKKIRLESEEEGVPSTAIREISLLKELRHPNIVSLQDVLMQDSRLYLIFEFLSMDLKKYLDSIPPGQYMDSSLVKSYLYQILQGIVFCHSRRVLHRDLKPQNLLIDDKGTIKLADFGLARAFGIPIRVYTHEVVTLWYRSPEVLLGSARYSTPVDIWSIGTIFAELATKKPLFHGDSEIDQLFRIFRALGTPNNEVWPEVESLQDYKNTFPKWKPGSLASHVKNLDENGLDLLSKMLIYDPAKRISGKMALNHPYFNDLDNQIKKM
T1 sequence (P14635 whole entry partner): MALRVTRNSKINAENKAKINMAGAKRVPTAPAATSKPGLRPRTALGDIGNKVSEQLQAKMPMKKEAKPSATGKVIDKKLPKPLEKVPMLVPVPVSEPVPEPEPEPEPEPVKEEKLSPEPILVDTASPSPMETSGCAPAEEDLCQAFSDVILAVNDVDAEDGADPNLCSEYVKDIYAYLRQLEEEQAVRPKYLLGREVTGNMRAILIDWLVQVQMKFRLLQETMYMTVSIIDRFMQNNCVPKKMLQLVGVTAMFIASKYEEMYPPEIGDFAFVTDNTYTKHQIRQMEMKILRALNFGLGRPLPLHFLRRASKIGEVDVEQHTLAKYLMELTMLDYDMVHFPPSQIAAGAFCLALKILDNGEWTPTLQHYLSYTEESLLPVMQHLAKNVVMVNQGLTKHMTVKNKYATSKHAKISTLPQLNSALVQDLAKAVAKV
T2 sequence (Q00535 whole entry): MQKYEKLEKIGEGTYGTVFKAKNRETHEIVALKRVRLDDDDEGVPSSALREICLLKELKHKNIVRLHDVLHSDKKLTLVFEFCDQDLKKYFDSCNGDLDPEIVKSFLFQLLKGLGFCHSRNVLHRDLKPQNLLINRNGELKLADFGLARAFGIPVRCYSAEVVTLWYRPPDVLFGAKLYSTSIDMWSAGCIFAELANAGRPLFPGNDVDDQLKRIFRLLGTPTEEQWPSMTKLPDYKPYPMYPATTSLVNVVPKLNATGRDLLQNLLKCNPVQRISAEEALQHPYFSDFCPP
T2 sequence (Q15078 99-307 partner limits assumed): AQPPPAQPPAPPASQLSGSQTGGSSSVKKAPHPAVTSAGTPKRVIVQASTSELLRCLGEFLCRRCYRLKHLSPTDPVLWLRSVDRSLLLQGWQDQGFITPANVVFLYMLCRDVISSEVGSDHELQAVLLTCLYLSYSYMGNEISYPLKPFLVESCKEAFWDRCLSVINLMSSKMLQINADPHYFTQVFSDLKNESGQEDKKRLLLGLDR

| Compound | IC50 [1] | IC50 [2] | IC50 [3] | IC50 [4] | IC50 [5] | CDK1/CDK7: Selectivity of CDK7 inhibition over CDK1 inhibition [6] | CDK2/CDK7: Selectivity of CDK7 inhibition over CDK2 inhibition [6] | CDK5/CDK7: Selectivity of CDK7 inhibition over CDK5 inhibition [6] | IC50 [6] | IC50 [7] | IC50 [8] | IC50 [9] |
| --- | --- | --- | --- | --- | --- | --- | --- | --- | --- | --- | --- | --- |
| CC(C)c1cnn2c(NCc3c(Cl)cccc3-c3ccc4[nH]cnc4c3)nc(N3CCC(N)CC3)nc12 [Compound 136] | > 1000 nM | 100 to 1000 nM | > 1000 nM | < 1000 nM | 1000 to 10000 nM | A (A=greater than 200 fold) | A (A=greater than 200 fold) | B (B=less than 200 fold, but greater than 20 fold) | < 100 nM | < 1000 nM | 1000 to 10000 nM |  |
| CC(C)c1cnn2c(NCc3ccccc3-n3cc4ccncc4n3)nc(N3CCC(N)CC3)nc12 [Compound 139] | > 1000 nM | 100 to 1000 nM | 100 to 1000 nM | < 1000 nM | < 1000 nM | A (A=greater than 200 fold) | B (B=less than 200 fold, but greater than 20 fold) | B (B=less than 200 fold, but greater than 20 fold) | < 100 nM | < 1000 nM | < 1000 nM |  |
| CC(C)c1cnn2c(NCc3ccccc3-n3cc4c(n3)CCOC4)nc(N3CCC(N)CC3)nc12 [Compound 133] | > 1000 nM | 100 to 1000 nM | 100 to 1000 nM | < 1000 nM | < 1000 nM | A (A=greater than 200 fold) | B (B=less than 200 fold, but greater than 20 fold) | B (B=less than 200 fold, but greater than 20 fold) | < 100 nM | < 1000 nM | < 1000 nM |  |
| CC(C)c1cnn2c(NCc3ccccc3-n3cc4cc(C(=O)N5CCCC5)ccc4n3)nc(N3CCC(N)CC3)nc12 [Compound 147] | > 1000 nM | 100 to 1000 nM | > 1000 nM | < 1000 nM | < 1000 nM | A (A=greater than 200 fold) | B (B=less than 200 fold, but greater than 20 fold) | B (B=less than 200 fold, but greater than 20 fold) | < 100 nM | < 1000 nM | 1000 to 10000 nM |  |
| CC(C)c1cnn2c(NCc3ccccc3N3Cc4ccccc4C3)nc(N3CCC(N)CC3)nc12 [Compound 128] | 100 to 1000 nM | < 100 nM | 100 to 1000 nM |  | < 1000 nM | B (B=less than 200 fold, but greater than 20 fold) | B (B=less than 200 fold, but greater than 20 fold) | C (C=less than 20 fold) | < 100 nM | < 1000 nM | < 1000 nM |  |
| CC(C)c1cnn2c(NCc3ccccc3-n3cc4cc(C#N)ccc4n3)nc(N3CCC(N)CC3)nc12 [Compound 120] | > 1000 nM | 100 to 1000 nM | 100 to 1000 nM |  | < 1000 nM | A (A=greater than 200 fold) | A (A=greater than 200 fold) | B (B=less than 200 fold, but greater than 20 fold) | < 100 nM | < 1000 nM | < 1000 nM |  |
| CC(C)c1cnn2c(NCc3ccccc3-n3cc4cc(C(N)=O)ccc4n3)nc(N3CCC(N)CC3)nc12 [Compound 146] | 100 to 1000 nM | 100 to 1000 nM | 100 to 1000 nM | < 1000 nM | < 1000 nM | A (A=greater than 200 fold) | A (A=greater than 200 fold) | B (B=less than 200 fold, but greater than 20 fold) | < 100 nM | < 1000 nM | < 1000 nM |  |
| CC(C)c1cnn2c(NCc3ccccc3-c3cn4c(n3)CCCC4)nc(N3CCC(N)CC3)nc12 [Compound 122] | > 1000 nM | 100 to 1000 nM | 100 to 1000 nM | < 1000 nM | < 1000 nM | A (A=greater than 200 fold) | B (B=less than 200 fold, but greater than 20 fold) | B (B=less than 200 fold, but greater than 20 fold) | < 100 nM | < 1000 nM | < 1000 nM |  |
| CC(C)CC(=O)Nc1cccc2cc(-c3ccccc3CNc3nc(N4CCC(N)CC4)nc4c(C(C)C)cnn34)[nH]c12 [Compound 145] | 100 to 1000 nM | < 100 nM | 100 to 1000 nM | < 1000 nM | < 1000 nM | B (B=less than 200 fold, but greater than 20 fold) | B (B=less than 200 fold, but greater than 20 fold) | C (C=less than 20 fold) | < 100 nM | < 1000 nM | < 1000 nM |  |
| CC(C)c1cnn2c(NCc3ccccc3-n3ncc4ccccc43)nc(N3CCC(N)CC3)nc12 [Compound 58] |  |  |  |  |  |  |  |  |  |  | 1000 to 10000 nM | 1000 to 10000 nM |
| CC(C)c1cnn2c(NCc3ccccc3-c3cn4ccc(F)cc4n3)nc(N3CCC(N)CC3)nc12 [Compound 124] | 100 to 1000 nM | < 100 nM | 100 to 1000 nM | < 1000 nM | < 1000 nM | B (B=less than 200 fold, but greater than 20 fold) | B (B=less than 200 fold, but greater than 20 fold) | C (C=less than 20 fold) | < 100 nM | < 1000 nM | < 1000 nM |  |
